IC50 data for 59 compounds are collected here from patent US8299070B2, “Indole compounds and pharmaceutical use thereof” (Japan Tobacco Inc., priority 2009, dated 2012).

Some results are limits rather than exact numbers.

For orientation: IC50 means the point on the concentration scale where inhibition reaches its midpoint.

The assay concerns the target T1, hITK enzyme (FLAG-tagged full-length hITK) (Homo sapiens, UniProt Q08881).
T1 construct: strongly expressing FLAG-tagged full-length hITK in Sf9 cells; FLAG; made in house; host or cells: Sf9 insect cells (ITK); Escherichia coli (GST-SLP76 substrate)
T1 sequence (Q08881 1-620): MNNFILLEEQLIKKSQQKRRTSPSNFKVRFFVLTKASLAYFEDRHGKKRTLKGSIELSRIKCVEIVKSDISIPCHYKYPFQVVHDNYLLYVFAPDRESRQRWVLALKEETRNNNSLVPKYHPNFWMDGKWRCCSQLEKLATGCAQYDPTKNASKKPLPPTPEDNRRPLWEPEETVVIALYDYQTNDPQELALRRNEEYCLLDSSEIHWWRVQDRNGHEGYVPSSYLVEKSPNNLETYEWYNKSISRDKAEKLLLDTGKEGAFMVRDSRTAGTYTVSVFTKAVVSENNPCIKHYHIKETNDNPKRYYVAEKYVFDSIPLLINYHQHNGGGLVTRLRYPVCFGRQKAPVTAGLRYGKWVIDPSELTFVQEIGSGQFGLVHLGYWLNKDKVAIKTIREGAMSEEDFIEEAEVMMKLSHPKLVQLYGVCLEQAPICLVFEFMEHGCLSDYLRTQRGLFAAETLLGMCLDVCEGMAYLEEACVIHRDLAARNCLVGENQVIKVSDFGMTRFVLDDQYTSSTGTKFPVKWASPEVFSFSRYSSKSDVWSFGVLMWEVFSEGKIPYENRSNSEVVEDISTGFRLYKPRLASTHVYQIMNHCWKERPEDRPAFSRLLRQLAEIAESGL
Nature of the assay: ITK inhibitory activity (HTRF kinase assay, biotinylated GST-SLP76 substrate). Type of assay: biochemical. Conditions: IC50 calculated from the 2 test compound concentrations sandwiching 50% ITK inhibitory rate. In outline: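 Sf9-expressed hITK (50 ng/mL enzyme solution) reacted 10 min at RT in MOPS pH 7.0, 10 mmol/L MgCl2, 1 mmol/L DTT with E. coli SLP76 aa95–175 substrate; substrate solution held 100 µmol/L ATP (6 µmol/L for selected compounds). HTRF 665/620 ratio, blank-corrected; IC50 interpolated between two concentrations bracketing 50% inhibition.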
As to `CCCOCCNC(=O)c1ccc2[nH]c(-c3n[nH]c4c3CCC(C)(C)C4)cc2c1` [Example 308], the IC50 is 49 nM.

Turning to `CN(C(=O)CN1CCCCCCC1=O)c1ccc2cc(-c3n[nH]c4c3CCC(C)(C)C4)[nH]c2c1` [Example 187], the IC50 was 2 nM.

`CC1CCC(=O)N1CC(=O)N(C)c1ccc2cc(-c3n[nH]c4c3CCC(C)(C)C4)[nH]c2c1` (centres unmarked) [Example 136]: the IC50 is 2 nM.

With `COCCC(=O)N(C)c1ccc2cc(-c3n[nH]c4c3CCC(C)(C)C4)[nH]c2c1` [Example 62], the IC50 was 4 nM.

`CN(C)CCN(C(=O)C1CCOCC1)c1ccc2cc(-c3n[nH]c4c3CCC(C)(C)C4)[nH]c2c1` [Example 216]: the IC50 is 8 nM.

On to `CCN1CCN(C(=O)c2ccc3[nH]c(-c4n[nH]c5c4CCC(C)(C)C5)cc3c2)CC1` [Example 337], for which the IC50 was 49 nM.

Consider `CCC(=O)N(C)c1ccc2cc(-c3n[nH]c4c3CC(OC(C)C)CC4)[nH]c2c1` (centres unmarked) [Example 371], for which the IC50 was 112 nM.

For the compound `CN(C)CCN(C(=O)C1CCCCC1)c1ccc2cc(-c3n[nH]c4c3CCC(C)(C)C4)[nH]c2c1` [Example 215], the half-inhibitory concentration (IC50) was under 3 nM.

In the case of `CN1CCN(CC(=O)N(C)c2ccc3cc(-c4n[nH]c5c4CCC(C)(C)C5)[nH]c3c2)C1=O` [Example 186], the IC50 is 1 nM.

In the case of `CC(O)C(=O)N(C)c1ccc2cc(-c3n[nH]c4c3CCC(C)(C)C4)[nH]c2c1` (centres unmarked) [Example 34], the IC50 is 5 nM.

Regarding `CN(C(=O)C(CO)OC1CCCC1)c1ccc2cc(-c3n[nH]c4c3CCC(C)(C)C4)[nH]c2c1` (centres unmarked) [Example 158], the IC50 is 5 nM.

Turning to `CC1CN(C(C)C(=O)N(C)c2ccc3cc(-c4n[nH]c5c4CCC(C)(C)C5)[nH]c3c2)CC(C)O1` (centres unmarked) [Example 120], the IC50 was 5 nM.

Take `CCN(C(=O)CN1CCC(C)(C)C1=O)c1ccc2cc(-c3n[nH]c4c3CCC(C)(C)C4)[nH]c2c1` [Example 284]: the IC50 is 1 nM.

As to `CN(C(=O)C1CCOCC1)c1ccc2cc(-c3n[nH]c4c3CCC(C)(C)C4)[nH]c2c1` [Example 60], the concentration for half-maximal inhibition (IC50) is 5 nM.

In the case of `CC(O)C(=O)N(C)c1ccc2cc(-c3n[nH]c4c3CCC(C)(C)C4)[nH]c2c1` (centres unmarked) [Example 46], the IC50 is 5 nM.

Consider `CC1(C)CCc2c(-c3cc4ccc(NC(N)=O)cc4[nH]3)n[nH]c2C1` [Example 29], for which the IC50 is 85 nM.

As for `CN(C(=O)COC1CCCOC1)c1ccc2cc(-c3n[nH]c4c3CCC(C)(C)C4)[nH]c2c1` (centres unmarked) [Example 123], the IC50 was 2 nM.

Turning to `CN(CC(=O)N(C)c1ccc2cc(-c3n[nH]c4c3CCC(C)(C)C4)[nH]c2c1)C(=O)C(C)(C)C` [Example 179], the IC50 is 1 nM.

`CCC(=O)N(C)c1ccc2cc(-c3n[nH]c4c3CC(O)CC4)[nH]c2c1` (centres unmarked) [Example 365]: the IC50 is 45 nM.

`COC(=O)CNC(=O)c1ccc2[nH]c(-c3n[nH]c4c3CCC(C)(C)C4)cc2c1` [Example 305]: the IC50 is 13 nM.

Regarding `CN(c1ccc2cc(-c3n[nH]c4c3CCC(C)(C)C4)[nH]c2c1)C(=O)[C@H]1CC[C@H](O)CC1` [Example 101], the concentration for half-maximal inhibition (IC50) was 13 nM.

On to `CN(C(=O)COC1CCOCC1)c1ccc2cc(-c3n[nH]c4c3CCC(C)(C)C4)[nH]c2c1` [Example 88], for which the IC50 was 3 nM.

For `CC1(C)CCc2c(-c3cc4ccc(N(CCO)C(=O)C5CCOC5)cc4[nH]3)n[nH]c2C1` (centres unmarked) [Example 238], the concentration for half-maximal inhibition (IC50) is 2 nM.

With `CN(C(=O)[C@@H]1CCCO1)c1ccc2cc(-c3n[nH]c4c3CCC(C)(C)C4)[nH]c2c1` [Example 139], the IC50 is 2 nM.

For `COC1CCC(CC(=O)N(C)c2ccc3cc(-c4n[nH]c5c4CCC(C)(C)C5)[nH]c3c2)CC1` (centres unmarked) [Example 176], the IC50 is 7 nM.

Take `CC1CC(=O)N(CC(=O)N(C)c2ccc3cc(-c4n[nH]c5c4CCC(C)(C)C5)[nH]c3c2)C1` (centres unmarked) [Example 188]: the 50% inhibitory concentration (IC50) is 1 nM.

Turning to `CC(C(=O)N(C)c1ccc2cc(-c3n[nH]c4c3CCC(C)(C)C4)[nH]c2c1)N1CCOCC1` (centres unmarked) [Example 104], the half-inhibitory concentration (IC50) is 4 nM.

As for `CCN(C(=O)[C@H](C)N1CCOCC1)c1ccc2cc(-c3n[nH]c4c3CCC(C)(C)C4)[nH]c2c1` [Example 275], the IC50 was 2 nM.

On to `CC(=O)N1CCC[C@H]1C(=O)N(C)c1ccc2cc(-c3n[nH]c4c3CCC(C)(C)C4)[nH]c2c1` [Example 165], for which the IC50 was 5 nM.

For the compound `CN(C(=O)C1CCCC1)c1ccc2cc(-c3n[nH]c4c3CCC(C)(CO)C4)[nH]c2c1` (centres unmarked) [Example 349], the IC50 was 2 nM.

Regarding `CC(=O)N(C)[C@@H](C)C(=O)N(C)c1ccc2cc(-c3n[nH]c4c3CCC(C)(C)C4)[nH]c2c1` [Example 202], the IC50 is 14 nM.

Turning to `COC1CCC(C(=O)N(C)c2ccc3cc(-c4n[nH]c5c4CCC(C)(C)C5)[nH]c3c2)CC1` (centres unmarked) [Example 74], the 50% inhibitory concentration (IC50) is 4 nM.

As to `CC(=O)N(CCO)c1ccc2cc(-c3n[nH]c4c3CCC(C)(C)C4)[nH]c2c1` [Example 214], the IC50 was under 3 nM.

In the case of `COCCN(C(=O)CN1CCCCCC1=O)c1ccc2cc(-c3n[nH]c4c3CCC(C)(C)C4)[nH]c2c1` [Example 281], the IC50 was 1 nM.

Regarding `CC1(C)CCc2c(-c3cc4cc(C(=O)N5CCOCC5)ccc4[nH]3)n[nH]c2C1` [Example 298], the IC50 was 44 nM.

As to `CN(C)CCNC(=O)c1ccc2[nH]c(-c3n[nH]c4c3CCC(C)(C)C4)cc2c1` [Example 323], the half-inhibitory concentration (IC50) is 34 nM.

On to `CC1(C)CCc2c(-c3cc4ccc(C(=O)Nc5ccccc5)cc4[nH]3)n[nH]c2C1` [Example 9], for which the IC50 was 334 nM.

As for `CC1(C)CCc2c(-c3cc4cc(C(=O)NC(C)(C)C(=O)O)ccc4[nH]3)n[nH]c2C1` [Example 326], the IC50 was 42 nM.

Regarding `CN(C(=O)CCC1CCCCC1)c1ccc2cc(-c3n[nH]c4c3CCC(C)(C)C4)[nH]c2c1` [Example 93], the IC50 was 48 nM.

As to `CC(C)C(CO)N(C)C(=O)c1ccc2cc(-c3n[nH]c4c3CCC(C)(C)C4)[nH]c2c1` (centres unmarked) [Example 25], the half-maximal inhibitory concentration (IC50) is 26 nM.

With `CN(CC(C)(C)C)C(=O)c1ccc2cc(-c3n[nH]c4c3CCC(C)(C)C4)[nH]c2c1` [Example 15], the half-inhibitory concentration (IC50) was 9 nM.

`COCC(=O)N(C)CC(=O)N(C)c1ccc2cc(-c3n[nH]c4c3CCC(C)(C)C4)[nH]c2c1` [Example 180]: the IC50 is under 1 nM.

For `COC(=O)CN(C)C(=O)c1ccc2[nH]c(-c3n[nH]c4c3CCC(C)(C)C4)cc2c1` [Example 311], the IC50 is 32 nM.

Turning to `CC1(C)CCc2c(-c3cc4ccc(N(CCO)C(=O)C5CCCO5)cc4[nH]3)n[nH]c2C1` (centres unmarked) [Example 237], the IC50 was 2 nM.

For the compound `COCC1(C)CCc2c(-c3cc4ccc(N(C)C(=O)CN5CCCCC5=O)cc4[nH]3)n[nH]c2C1` (centres unmarked) [Example 347], the IC50 is 4 nM.

Consider `CC1(C)CCc2c(-c3cc4cc(C(=O)Nc5nnc(O)s5)ccc4[nH]3)n[nH]c2C1` [Example 324], for which the concentration for half-maximal inhibition (IC50) was 140 nM.

For the compound `CN(C(=O)CC1CCC(=O)N1)c1ccc2cc(-c3n[nH]c4c3CCC(C)(C)C4)[nH]c2c1` (centres unmarked) [Example 143], the IC50 is 3 nM.

`Cn1cccc1CNC(=O)c1ccc2[nH]c(-c3n[nH]c4c3CCC(C)(C)C4)cc2c1` [Example 319]: the 50% inhibitory concentration (IC50) is 46 nM.

Regarding `CC(C)CC(=O)N(CCO)c1ccc2cc(-c3n[nH]c4c3CCC(C)(C)C4)[nH]c2c1` [Example 247], the IC50 is 4 nM.

Turning to `CN(C(=O)C(O)C1CCCOC1)c1ccc2cc(-c3n[nH]c4c3CCC(C)(C)C4)[nH]c2c1` (centres unmarked) [Example 96], the IC50 was 3 nM.

Regarding `CNC(=O)c1ccc2[nH]c(-c3n[nH]c4c3CCC(C)(C)C4)cc2c1` [Example 294], the IC50 is 51 nM.

For `CC1(C)CCc2c(-c3cc4ccc(N(CCO)C(=O)C(O)C5CCCOC5)cc4[nH]3)n[nH]c2C1` (centres unmarked) [Example 245], the IC50 was 10 nM.

On to `CN(C(=O)CN1CC(C)(C)CCC1=O)c1ccc2cc(-c3n[nH]c4c3CCC(C)(C)C4)[nH]c2c1` [Example 175], for which the IC50 is 2 nM.

Turning to `CC1CCN(CC(=O)N(C)c2ccc3cc(-c4n[nH]c5c4CCC(C)(C)C5)[nH]c3c2)C1=O` (centres unmarked) [Example 162], the IC50 is 1 nM.

As to `CC(C)CNC(=O)c1ccc2cc(-c3n[nH]c4c3CCC(C)(C)C4)[nH]c2c1` [Example 12], the IC50 is 33 nM.

For `CC(CO)C(=O)N(C)c1ccc2cc(-c3n[nH]c4c3CCC(C)(C)C4)[nH]c2c1` (centres unmarked) [Example 61], the IC50 was 6 nM.

As to `CC1(C)CCc2c(-c3cc4cc(NC(=O)c5ccccc5)ccc4[nH]3)n[nH]c2C1` [Example 344], the IC50 was 278 nM.

With `CO[C@H]1CN(CC(=O)N(C)c2ccc3cc(-c4n[nH]c5c4CCC(C)(C)C5)[nH]c3c2)C[C@H]1OC` [Example 155], the IC50 was 9 nM.

Consider `C[C@@H]1CN(CC(=O)N(C)c2ccc3cc(-c4n[nH]c5c4CCC(C)(C)C5)[nH]c3c2)C(=O)CO1` [Example 182], for which the IC50 is 2 nM.
